Experiments:
[1] = GVS (Dynamic Vapour Sorption) water uptake of crystalline forms; format: physicochemical; settings: ±0.2%; for GVS weight increase: at 80% RH; for water uptake as measured by GVS: between RH of 0%-80%
Experimental: GVS profiles were measured using a Dynamic Vapour Sorption DVS-1 instrument. The solid sample ca. 1-5 mg was placed into a glass vessel and the weight of the sample was recorded during a dual cycle step method (40 to 90 to 0 to 90 to 0% relative humidity (RH), in steps of 10% RH).

[2] = target: human active recombinant p38α-6His tagged (Homo sapiens, UniProt Q16539); assay: P38 Alpha Enzyme Assay (AlphaScreen, biotinylated-ATF2 substrate); format: biochemical; settings: p38 alpha enzyme inhibition; means of replicate determinations; 4 h pre-incubation at 37° C.; SD of assay 0.2-0.3 log units;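 note: 0.5 nM final p38α, reaction started with ATP and run 45 min at 37 °C, phospho-ATF2 read by antibody-based AlphaScreen, background wells quenched with EDTA before ATP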
Sequence of human active recombinant p38α-6His tagged (Q16539 whole entry): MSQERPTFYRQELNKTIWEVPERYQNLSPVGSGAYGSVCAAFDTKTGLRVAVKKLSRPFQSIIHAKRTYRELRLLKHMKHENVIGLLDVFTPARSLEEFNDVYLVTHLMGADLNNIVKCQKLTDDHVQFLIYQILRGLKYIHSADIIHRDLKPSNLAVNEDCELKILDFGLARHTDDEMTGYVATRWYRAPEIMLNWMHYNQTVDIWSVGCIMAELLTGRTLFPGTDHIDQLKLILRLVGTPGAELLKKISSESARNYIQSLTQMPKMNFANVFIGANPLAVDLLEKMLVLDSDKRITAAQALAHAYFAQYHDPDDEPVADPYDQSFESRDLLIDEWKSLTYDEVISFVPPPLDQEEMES

| pIC50 [2] | SMILES | also measured |
| --- | --- | --- |
| – | CNCCOc1ccccc1C(C)(C)Nc1nccn(-c2cc(C(=O)NC3CC3)ccc2C)c1=O [example 163 crystalline form B, N-Cyclopropyl-4-methyl-3-[3-[[1-methyl-1-[2-[2-(methylamino)ethoxy]phenyl]ethyl]amino]-2-oxo-1(2H)-pyrazinyl]-benzamide Crystalline Form B] | GVS weight increase [1]: 4.3 % w/w |
| – | CNCCOc1ccccc1C1(Nc2nccn(-c3cc(C(=O)NC4CC4)ccc3C)c2=O)CC1 [example 167 Crystalline Form A, N-Cyclopropyl-4-methyl-3-[3-[[1-[2-[2-(methylamino)ethoxy]phenyl]cyclopropyl]amino]-2-oxo-1(2H)-pyrazinyl]-benzamide Crystalline Form A] | water uptake as measured by GVS [1]: 1% |
| – | CNCCOc1ccccc1C1(Nc2nccn(-c3cc(C(=O)NC4CC4)cc(F)c3C)c2=O)CC1 [example 259 crystalline form A, N-Cyclopropyl-3-fluoro-4-methyl-5-[3-[[1-[2-[2-(methylamino)ethoxy]phenyl]cyclopropyl]amino]-2-oxo-1(2H)-pyrazinyl]-benzamide Crystalline Form A] | water uptake as measured by GVS [1]: 0.4% |
| – | Cc1c(F)cc(C(=O)NC2CC2)cc1-n1ccnc(NC2(c3ccccc3OCCNCCO)CC2)c1=O [example 260 crystalline form A, N-Cyclopropyl-3-fluoro-5-[3-[[1-[2-[2-[(2-hydroxyethyl)amino]ethoxy]phenyl]cyclopropyl]amino]-2-oxo-1(2H)-pyrazinyl]-4-methyl-benzamide Crystalline Form A] | water uptake as measured by GVS [1]: 1.2% |
| – | CNCCOc1ccccc1C(C)(C)Nc1nccn(-c2cc(C(=O)NC3CC3)ccc2C)c1=O.Cc1ccc(S(=O)(=O)O)cc1 [N-Cyclopropyl-4-methyl-3-[3-[[1-methyl-1-[2-[2-(methylamino)ethoxy]phenyl]ethyl]amino]-2-oxo-1(2H)-pyrazinyl]-benzamide Tosylate Salt Crystalline Form A] | GVS weight increase [1]: 0.1 % w/w |
| – | CNCCOc1ccccc1C(C)(C)Nc1nccn(-c2cc(C(=O)NC3CC3)ccc2C)c1=O [example 163 crystalline form A, N-Cyclopropyl-4-methyl-3-[3-[[1-methyl-1-[2-[2-(methylamino)ethoxy]phenyl]ethyl]amino]-2-oxo-1(2H)-pyrazinyl]-benzamide Crystalline Form A] | GVS weight increase [1]: 5 % w/w |
| – | CNCCOc1ccccc1C(C)(C)Nc1nccn(-c2cc(C(=O)NC3CC3)ccc2C)c1=O [example 163 crystalline form C, N-Cyclopropyl-4-methyl-3-[3-[[1-methyl-1-[2-[2-(methylamino)ethoxy]phenyl]ethyl]amino]-2-oxo-1(2H)-pyrazinyl]-benzamide Crystalline Form C] | GVS weight increase [1]: 0.3 % w/w |
| 9.3 | CCNCCOc1c(F)cccc1C1(Nc2nccn(-c3cc(C(=O)NC4CC4)ccc3C)c2=O)CC1 [Example 286, N-Cyclopropyl-3-{3-[(1-{2-[2-(ethylamino)ethoxy]-3-fluorophenyl}cyclopropyl)amino]-2-oxopyrazin-1(2H)-yl}-4-methylbenzamide] | – |
| 6.1 | Cc1ccc(C(=O)NC2CC2)cc1-n1ccnc(NCCCN2CCN(C)CC2)c1=O [Example 4, N-Cyclopropyl-4-methyl-3-[3-[[3-(4-methyl-1-piperazinyl)propyl]amino]-2-oxo-1(2H)-pyrazinyl]-benzamide] | – |
| 7.2 | Cc1ccc(C(=O)NC2CC2)cc1-n1ccnc(N2CCCC(c3ccc(OCCN4CCCC4)cc3)C2)c1=O (centres unmarked) [Example 59, N-Cyclopropyl-4-methyl-3-[2-oxo-3-[3-[4-[2-(1-pyrrolidinyl)ethoxy]phenyl]-1-piperidinyl]-1(2H)-pyrazinyl]-benzamide] | – |
| 10.5 | COCCNCCOc1ccccc1C1(Nc2nccn(-c3cc(C(=O)NC4CC4)cc(F)c3C)c2=O)CC1 [Example 261, N-Cyclopropyl-3-fluoro-5-[3-[[1-[2-[2-[(2-methoxyethyl)amino]ethoxy]phenyl]cyclopropyl]amino]-2-oxo-1(2H)-pyrazinyl]-4-methyl-benzamide] | – |
| – | Cc1ccc(C(=O)NC2CC2)cc1-n1ccnc(N2CCc3ccccc3C2)c1=O [Example 30, N-Cyclopropyl-3-[3-(3,4-dihydro-2(1H)-isoquinolinyl)-2-oxo-1(2H)-pyrazinyl]-4-methyl-benzamide] | IC50 [2]: 126 nM |
| 9.1 | Cc1ccc(C(=O)NC2CC2)cc1-n1ccnc(NC(C)(C)c2ccccc2OCC2CCCNC2)c1=O (centres unmarked) [Example 218, N-Cyclopropyl-4-methyl-3-[3-[[1-methyl-1-[2-(3-piperidinylmethoxy)phenyl]ethyl]amino]-2-oxo-1(2H)-pyrazinyl]-benzamide] | – |
| 6.9 | Cc1ccc(C(=O)NC2CC2)cc1-n1ccnc(NCc2cccc(CN)c2)c1=O [Example 124, 3-[3-[[[3-(Aminomethyl)phenyl]methyl]amino]-2-oxo-1(2H)-pyrazinyl]-N-cyclopropyl-4-methyl-benzamide] | – |
| 6.4 | COCCCNc1nccn(-c2cc(C(=O)NC3CC3)ccc2C)c1=O [Example 8, N-Cyclopropyl-3-[3-[(3-methoxypropyl)amino]-2-oxo-1(2H)-pyrazinyl]-4-methyl-benzamide] | – |
| 6.3 | Cc1ccc(C(=O)NC2CC2)cc1-n1cc(Cl)nc(NCCCN(C)C)c1=O [Example 108, 3-[5-Chloro-3-[[3-(dimethylamino)propyl]amino]-2-oxo-1(2H)-pyrazinyl]-N-cyclopropyl-4-methyl-benzamide] | – |
| 8.2 | Cc1ccc(C(=O)NC2CC2)cc1-n1ccnc(NCc2cccc(Cl)c2)c1=O [Example 130, 3-[3-[[(3-Chlorophenyl)methyl]amino]-2-oxo-1(2H)-pyrazinyl]-N-cyclopropyl-4-methyl-benzamide] | – |
| 6.8 | Cc1ccc(C(=O)NC2CC2)cc1-n1ccnc(NCCc2ccc(OCCN3CCCC3)cc2)c1=O [Example 133, N-Cyclopropyl-4-methyl-3-[2-oxo-3-[[2-[4-[2-(1-pyrrolidinyl)ethoxy]phenyl]ethyl]amino]-1(2H)-pyrazinyl]-benzamide] | – |
| 8.6 | CNCCOc1ccccc1C(C)(C)Nc1nccn(-c2cc(C(N)=O)ccc2C)c1=O [Example 229, 4-Methyl-3-[3-[[1-methyl-1-[2-[2-(methylamino)ethoxy]phenyl]ethyl]amino]-2-oxo-1(2H)-pyrazinyl]benzamide] | – |
| 9.7 | Cc1c(F)cc(C(=O)NC2CC2)cc1-n1ccnc(NC(C)(C)c2ccccc2SCCN)c1=O [Example 321, 3-{3-[(1-{2-[(2-Aminoethyl)sulfanyl]phenyl}-1-methylethyl)amino]-2-oxopyrazin-1(2H)-yl}-N-cyclopropyl-5-fluoro-4-methylbenzamide] | – |
